Results on one compound are retold here after patent publication US20060024691A1, “Novel pathways in the etiology of cancer” (Buck Institute for Age Research, priority 2004, published 2006).

Format in all cases: cell-based, human
Assay [1] concerns NFκB. The experiment in a line: NFκB DNA-binding by EMSA, nuclear extracts of menadione treated MCF-7 cells. The following applies: MCF-7, menadione 100 μM × 30 min. On the procedure: PS-341 was kindly provided by Millennium Pharmaceuticals Inc. (Cambridge, Mass.). […] For assessment of combined treatment effects on cell viability, 2×10^4 cells (MCF-7, MCF-7/HER2, BT474) grown in 24-well plates were first treated with tamoxifen (dissolved in ethanol) and/or parthenolide (dissolved in DMSO); for the combination treatment pathenolide was added 4 h before addition of tamoxifen. Cell viability was measured 18 h after tamoxifen treatment using the sulforhodamine B (SRB) assay (Skehan, et al. 1990). Briefly, cells fixed with trichloroacetic acid were stained for 30 min with 0.4% SRB dissolved in 1% acetic acid. Unbound dye was removed by four washes with 1% acetic acid, and protein-bound dye was extracted with 10 mM unbuffered Tris base [tris(hydroxymethyl)aminomethane] for determination of optical density at 564 nm.
Fractionation of control and treated cells into cytoplasmic and nuclear extracts was performed as previously described (Dignam et al., 1983), with minor modification. Cells harvested on ice were washed twice with cold PBS, scraped and resuspended in 1.0 ml hypotonic buffer (20 mM HEPES, pH 7.0; 10 mM KCl; 1 mM MgCl2; 0.1% Triton X-100; 20% glycerol; 0.5 mM DTT) containing a cocktail of protease inhibitors (Mini CompleteTM protease inhibitors, Roche Diagnostics, Mannheim, Germany). The harvested cells were Dounce homogenized on ice, the mixture centrifuged at 3,000 rpm at 4° C. (5 min), and the cytoplasmic fraction separated from the nuclear pellet which was resuspended in elution buffer (20 mM HEPES, pH 7.0; 10 mM KCl; 1 mM MgCl2; 0.42 M NaCl; 0.1% Triton X-100; 20% glycerol; 0.5 mM DTT), supplemented with protease inhibitors. After 20 min at 4° C. the buffered mixture was centrifuged at 14,000 rpm at 4° C. (10 min) to obtain solubilized nuclear extracts which were then stored in aliquots at −80° C. after protein determination (Bradford; BioRad, Hercules, Calif.) and for subsequent NFkB DNA-binding assays.
NFκB DNA-binding activity was measured by two different techniques. Analogous to previous tumor extract scoring of Sp1 DNA-binding protein (Quong et al., 2002), total specific NFκB DNA-binding protein was determined by electrophoretic morbility shift assay (EMSA) as follows. A duplexed oligonucleotide probe (Promega, Madison, Wis.) with sense strand containing the decameric κB consensus binding sequence (underlined) 5′-[…]-3′(SEQ ID NO:4) was end-labeled with [γ-P32]ATP (PerkinElmer, Boston, Mass.) using T4 polynucleotide kinase (Promega, Madison, Wis.) and purified with G-50 Sephadex Bio-Spin columns (BioRad, Hercules, Calif.). […]
(In general: A gel shift assay detects complexes by their altered migration in electrophoresis.)

Assay [2] concerns ERα Ser-118 (67 kD ERα and 52 kD ERα variant). The following applies: for Ser-118 phosphorylation of ER induced by treatment: MCF-7/T47D cells, charcoal-stripped media, 30 min, menadione 100 μM, estradiol 10 nM, other quinones at equitoxic doses. On the procedure: (§1) Human breast cancer cell lines MCF7 and T47D were obtained from the American Type Culture Collection (ATCC). MCF7 cells were maintained in Dulbecco's Modification of Eagle's Medium (Cellgro) supplemented with 10% fetal bovine serum (Cellgro), 1% penicillin/streptomycin (Cellgro) and 10 μg/ml insulin (Sigma). T47D cells were maintained in RPMI (Cellgro) supplemented with 10% fetal bovine serum, 1% penicillin/streptomycin and 10 μg/ml insulin. Treatment conditions for both cell lines involved plating ˜1×10^6 cells in normal media onto 10 cm dishes, attachment and growth for 24 hours followed by a change to estrogen-free culture conditions (phenol red-free DME H-16 supplemented with 10% charcoal stripped serum, 1% penicillin/streptomycin and 10 μg/ml insulin) for an additional 24 hours. Cells were then treated as indicated for 30 minutes before extract preparation. Indicated conditions involved 30 minute pretreatments.
(§2) Following aspiration of the media and one ice cold PBS wash, cells growing on 10 cm dishes were harvested using a cell scraper and 0.7 ml of ice cold cell lyses buffer ([…], 1.5 mM MgCl2, […] KCl, 1 mM DTT, […] NaFl, 5% glycerol, 0.45% NP40 (Igepal, Sigma) and mincomplete protease inhibitors (Roche)). […] For preparation of high-salt nuclear extracts (nucleoplasm), isolated nuclei were resuspended for 20 minutes in ice cold extraction buffer (0.4 M NaCl, 25 mM Tris pH 7.5, 1 mM DTT, 20% glycerol, 10 mM NaFl and min-complete protease inhibitors (Roche)) followed by a 4° C. centrifugation at 16,000×g for 15 minutes.
(§3) Equal amounts of protein from the various extracts were mixed with 2× SDS sample buffer (125 mM Tris pH6.8, 20% glycerol, 2% SDS, 0.28 M 2-mercaptoethanol and0.5% Bromphenol Blue), heated for 5 minutes at 90° C. and electrophoresed on NuPAGE 4-12% Bis-Tris gels (Invitrogen) using NuPAGE MOPS SDS running buffer (Invitrogen) and full range Rainbow recombinant protein molecular weight markers (Amersham Pharmacia). […] Membranes were then blocked for 30 minutes in blocking buffer (150 mM NaCl, 20 mM Tris pH 7.5, 0.3% Tween-20 and 4% Nonfat dry milk powerby weight).

Assay [3] has as its system ERα Ser-167 (67 kD ERα and 52 kD ERα variant). The following applies: MCF7 nuclear extracts, 30 min. As to the method:
as §1, §2, §3

Assay [4] has as its system NF-κB p65. The experiment in a line: Nuclear translocation of NF-κB p65 in MCF-7 cultures. The following applies: 10 μM, 30 min.

Entries after “also recorded” stand apart in the source; their conditions may differ. Like-named read-outs stand apart in the source and are kept apart here. Some results are limits rather than exact numbers.

With `CC1=CC(=O)c2ccccc2C1=O` [menadione, 2-methyl-1,4-naphthoquinone], the “NFκB activation after menadione treatment (EMSA)” value in assay [1] is “increase in MCF-7 NFκB activation; also recorded: significantly increase MCF-7 NFκB activity”. Further, the “Ser-118 phosphorylation of ER induced by treatment” value in assay [2] was “induced Ser-118 phosphorylation”; in assay [2] (listed as K3), “contained both 67 kD and 52 kD p-Ser-118 ERα”. Moreover, in assay [2] (menadione exposures 4-6 hr), the “ER isoform activation on longer exposure” value is given as “further enhanced activation of the ˜52 kDa delta7 ER isoform while diminishing that of 67 kDa ER”. In addition, the “Ser-167 phosphorylation of ERα induced by treatment” value in assay [3] is reported as “Ser-167 phosphorylation only on the 52 kD ERα nuclear variant”. Moreover, in assay [4], the “increase in nuclear translocation of NF-κB p65 vs control treated cells” value was > 3 fold.
